Counter-ions that a name gives are not always drawn. Like-named read-outs stand apart in the source and are kept apart here.
What was measured:
[1] = molecular target: human CDK4 and genetically truncated (1-264) cyclin D3 (Homo sapiens, UniProt P11802); experiment: Inhibition of CDK4/Cyclin D Retinoblastoma Kinase Activity; assay type: biochemical; settings: for Ki: apparent Ki, CDK4/truncated cyclin D3, Rb fragment substrate, 25 μM ATP
Summary of the method: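 Apparent Ki values come from competitive or competitive tight-binding inhibition fits of background-corrected 32P/33P incorporation into His-tagged Rb fragment (386-928), captured on nitrocellulose. Reaction: 5 nM insect-cell-expressed human CDK4 with cyclin D3 (1-264), 25 μM ATP, pH 7.4 HEPES, 2% DMSO, 30° C., 20 min, extended to 60 min for tight-binding inhibitors.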

[2] = tested on: HCT-116 cell line; experiment: Inhibition of cell growth, tetrazolium salt (MTT) assay; assay type: cell-based; settings: for IC50: Homo sapiens, HCT-116, 120 h, MTT, three to five days, read-out: HCT-116 IC50; for HCT-116 % Inhibition at 0.25 μM: 0.25 μM compound
Summary of the method: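 Growth inhibition by MTT reduction at 540 nm (0.2 mg/mL, 4 h at 37° C, formazan dissolved in DMSO), normalized to cells given only 0.5% v/v DMSO. HCT-116 cultures in McCoy's 5A were dosed 4 h post-plating and kept three to five days at 37° C, 5% CO2.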

[3] = molecular target: CDK2/Cyclin A (Homo sapiens, UniProt P24941); experiment: Inhibition of CDK2/Cyclin A Retinoblastoma Kinase Activity; assay type: biochemical; settings: for Ki: apparent Ki, CDK2/proteolyzed cyclin A, Rb fragment substrate, 25 μM ATP
Summary of the method: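 Radiometric filter-binding readout of phosphate transfer to an Rb substrate fragment by purified CDK2/truncated cyclin A at 10 or 19 nM. Run at pH 7.4 with 25 μM ATP, 30 °C, 60–75 min, linear rates; background without enzyme subtracted, Ki from competitive-inhibition models.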

[4] = 0.1 μM compound, HCT-116, Table 4
[5] = 0.1 μM compound, HCT-116, Table 3

Chain of human CDK4 and genetically truncated (1-264) cyclin D3 (P11802 whole entry, the tested form may be a part): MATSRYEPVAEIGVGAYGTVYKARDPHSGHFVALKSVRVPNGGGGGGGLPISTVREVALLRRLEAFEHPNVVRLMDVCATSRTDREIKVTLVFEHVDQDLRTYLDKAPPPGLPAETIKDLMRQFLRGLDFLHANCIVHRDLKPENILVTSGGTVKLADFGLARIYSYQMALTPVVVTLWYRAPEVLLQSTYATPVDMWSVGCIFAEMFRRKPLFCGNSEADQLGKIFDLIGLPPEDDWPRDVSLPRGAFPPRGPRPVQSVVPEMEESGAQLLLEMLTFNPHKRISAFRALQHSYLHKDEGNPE
Chain of human CDK4 and genetically truncated (1-264) cyclin D3 (P30281 1-264 partner): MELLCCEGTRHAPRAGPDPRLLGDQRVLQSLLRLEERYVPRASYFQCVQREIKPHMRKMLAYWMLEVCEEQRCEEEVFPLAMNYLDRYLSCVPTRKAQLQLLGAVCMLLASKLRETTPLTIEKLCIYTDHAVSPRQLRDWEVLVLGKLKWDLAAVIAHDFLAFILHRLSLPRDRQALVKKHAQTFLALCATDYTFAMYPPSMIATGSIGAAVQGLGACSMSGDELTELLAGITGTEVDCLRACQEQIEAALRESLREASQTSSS

Structure (SMILES): Nc1nc(NC2CCN(C(=O)c3c[nH]cn3)CC2)sc1C(=O)c1c(F)cccc1F [Example C14, 1-{4-Amino-2-[1-(1-1H-imidazol-4-yl-methanoyl)-piperidin-4-ylamino]-thiazol-5-yl}-1-(2,6-difluoro-phenyl)-methanone]
- Ki [1]: 66 nM
- IC50 ([2]; first HCT-116 column (c4)): > 5000 nM
- IC50 ([2]; second HCT-116 column (c5)): > 5000 nM
- Ki [3]: 95 nM

Structure (SMILES): Nc1nc(NC2CCN(C(=O)c3cccnc3)CC2)sc1C(=O)c1c(F)cccc1F [Example Q80]
- CDK4 % Inhibition at 0.03 μM ([1]; 0.03 μM compound, Table 4): 50%
- HCT-116 % Inhibition at 0.1 μM [2, 4]: 10%
- HCT-116 % Inhibition at 0.25 μM ([2]; HCT-116, Table 4): 27%
- CDK2 % Inhibition at 0.03 μM ([3]; 0.03 μM compound, Table 4): 20%

Structure (SMILES): CC(=O)N(C)C1CCN(CCCS(=O)(=O)N2CCC(Nc3nc(N)c(C(=O)c4c(F)cccc4F)s3)CC2)C1 (stereo not shown) [Example K20, N-{1-[3-(4-{4-Amino-5-[1-(2,6-difluoro-phenyl)-methanoyl]-thiazol-2-ylamino}-piperidine-1-sulfonyl)-propyl]-pyrrolidin-3-yl}-N-methyl-acetamide]
- Ki [1]: 1.5 nM
- IC50 ([2]; first HCT-116 column (c4)): 2000 nM
- IC50 ([2]; second HCT-116 column (c5)): 5000 nM
- Ki [3]: 4.8 nM

Structure (SMILES): COCC(=O)N1CCC(Nc2nc(N)c(C(=O)c3c(F)cccc3F)s2)CC1 [Example Q42]
- CDK4 % Inhibition at 0.03 μM ([1]; 0.03 μM compound, Table 4): 20%
- HCT-116 % Inhibition at 0.1 μM [2, 4]: 3%
- HCT-116 % Inhibition at 0.25 μM ([2]; HCT-116, Table 4): 30%
- CDK2 % Inhibition at 0.03 μM ([3]; 0.03 μM compound, Table 4): −4%

Structure (SMILES): Nc1nc(NC2CCN(C(=O)COc3cc(Cl)c(Cl)cc3Cl)CC2)sc1C(=O)c1c(F)cccc1F [Example R12]
- CDK4 % Inhibition at 0.03 μM ([1]; at 0.03 μM): 23%
- HCT-116 % Inhibition at 0.1 μM ([2]; HCT-116 cells, at 0.1 μM): 0%
- HCT-116 5 Inhibition at 0.25 μM ([2]; HCT-116 cells): 48
- CDK2 % Inhibition at 0.03 μM ([3]; at 0.03 μM): −10%

Structure (SMILES): C=Cc1ccc(C(=O)N2CCC(Nc3nc(N)c(C(=O)c4c(F)cccc4F)s3)CC2)cc1 [Example R156]
- CDK4 % Inhibition at 0.03 μM ([1]; at 0.03 μM): 89%
- HCT-116 % Inhibition at 0.1 μM ([2]; HCT-116 cells, at 0.1 μM): 0%
- HCT-116 5 Inhibition at 0.25 μM ([2]; HCT-116 cells): 43
- CDK2 % Inhibition at 0.03 μM ([3]; at 0.03 μM): 65%

Structure (SMILES): Nc1nc(NC2CCN(S(=O)(=O)c3cc(Cl)sc3Cl)CC2)sc1C(=O)c1c(F)cccc1F [Example P35]
- CDK4 % Inhibition at 0.03 μM ([1]; 0.03 μM compound, Table 3): 47%
- HCT-116 % Inhibition at 0.1 μM [2, 5]: 1%
- HCT-116 % Inhibition at 0.25 μM ([2]; HCT-116, Table 3): 22%
- CDK2 % Inhibition at 0.03 μM ([3]; 0.03 μM compound, Table 3): 37%

Structure (SMILES): Nc1nc(NC2CCN(S(=O)(=O)c3ccc(Oc4ccccc4)cc3)CC2)sc1C(=O)c1c(F)cccc1F [Example P84]
- CDK4 % Inhibition at 0.03 μM ([1]; 0.03 μM compound, Table 3): 38%
- HCT-116 % Inhibition at 0.1 μM [2, 5]: 10%
- HCT-116 % Inhibition at 0.25 μM ([2]; HCT-116, Table 3): 26%
- CDK2 % Inhibition at 0.03 μM ([3]; 0.03 μM compound, Table 3): 28%

Structure (SMILES): Nc1nc(NC2CCN(S(=O)(=O)c3ccc(CN4CCOCC4)cc3)CC2)sc1C(=O)c1c(F)cccc1F [Example J8, 1-{4-Amino-2-[1-(4-morpholin4-ylmethyl-benzenzsulfonyl)-piperidin-4-ylamino]-thiazol-5-yl}-1-(2,6-difluoro-phenyl)-methanone Hydrochloride Salt]
- Ki [1]: 1.2 nM
- IC50 ([2]; first HCT-116 column (c4)): 98 nM
- IC50 ([2]; second HCT-116 column (c5)): 400 nM
- Ki [3]: 1.3 nM

Structure (SMILES): Nc1nc(NC2CCN(S(=O)(=O)c3c(Cl)nc4sccn34)CC2)sc1C(=O)c1c(F)cccc1F [Example P79]
- CDK4 % Inhibition at 0.03 μM ([1]; 0.03 μM compound, Table 3): 44%
- HCT-116 % Inhibition at 0.1 μM [2, 5]: 10%
- HCT-116 % Inhibition at 0.25 μM ([2]; HCT-116, Table 3): 18%
- CDK2 % Inhibition at 0.03 μM ([3]; 0.03 μM compound, Table 3): 53%

Structure (SMILES): Nc1nc(NC2CCN(C(=O)c3cc(Cl)ccc3Cl)CC2)sc1C(=O)c1c(F)cccc1F [Example R108]
- CDK4 % Inhibition at 0.03 μM ([1]; at 0.03 μM): 72%
- HCT-116 % Inhibition at 0.1 μM ([2]; HCT-116 cells, at 0.1 μM): 5%
- HCT-116 5 Inhibition at 0.25 μM ([2]; HCT-116 cells): 58
- CDK2 % Inhibition at 0.03 μM ([3]; at 0.03 μM): 56%

Structure (SMILES): CC(C)NCCOc1ccc(S(=O)(=O)N2CCC(Nc3nc(N)c(C(=O)c4c(F)cccc4F)s3)CC2)cn1 [Example H19, (4-Amino-2-{1-[6-(2-isopropylamino-ethoxy)-pyddine-3-sulfonyl]-piperidin-4-ylamino}-thiazol-5-yl)-(2,6-difluoro-phenyl)-methanone Hydrochloride Salt]
- Ki [1]: 0.52 nM
- IC50 ([2]; first HCT-116 column (c4)): 180 nM
- IC50 ([2]; second HCT-116 column (c5)): 2500 nM
- Ki [3]: 1.5 nM

Structure (SMILES): Nc1nc(NC2CCN(S(=O)(=O)c3ccc(O)c(C(=O)O)c3)CC2)sc1C(=O)c1c(F)cccc1F [Example P58]
- CDK4 % Inhibition at 0.03 μM ([1]; 0.03 μM compound, Table 3): 15%
- HCT-116 % Inhibition at 0.1 μM [2, 5]: 14%
- HCT-116 % Inhibition at 0.25 μM ([2]; HCT-116, Table 3): 30%
- CDK2 % Inhibition at 0.03 μM ([3]; 0.03 μM compound, Table 3): −16%

Structure (SMILES): Nc1nc(NC2CCN(S(=O)(=O)c3cc(OCC(F)(F)F)ccc3OCC(F)(F)F)CC2)sc1C(=O)c1c(F)cccc1F [Example P54]
- CDK4 % Inhibition at 0.03 μM ([1]; 0.03 μM compound, Table 3): 34%
- HCT-116 % Inhibition at 0.1 μM [2, 5]: 22%
- HCT-116 % Inhibition at 0.25 μM ([2]; HCT-116, Table 3): 23%
- CDK2 % Inhibition at 0.03 μM ([3]; 0.03 μM compound, Table 3): 17%

Structure (SMILES): Nc1nc(NC2CCN(S(=O)(=O)c3cnc(OCCN4CCCCC4)nc3)CC2)sc1C(=O)c1c(F)cccc1F [Example H23, (4-Amino-2-{1-[2-(2-piperidin-1-yl-ethoxy)-pyrimidine-5-sulfonyl]-piperidin-4-ylamino}-thiazol-5-yl)-(2,6-difluoro-phenyl)-methanone Trifluoroacetic Acid Salt]
- Ki [1]: 0.52 nM
- IC50 ([2]; first HCT-116 column (c4)): 93 nM
- IC50 ([2]; second HCT-116 column (c5)): 1500 nM
- Ki [3]: 1.5 nM

Structure (SMILES): CC(C)(Oc1ccc(Cl)cc1)C(=O)N1CCC(Nc2nc(N)c(C(=O)c3c(F)cccc3F)s2)CC1 [Example R66]
- CDK4 % Inhibition at 0.03 μM ([1]; at 0.03 μM): 27%
- HCT-116 % Inhibition at 0.1 μM ([2]; HCT-116 cells, at 0.1 μM): 0.54%
- HCT-116 5 Inhibition at 0.25 μM ([2]; HCT-116 cells): 42
- CDK2 % Inhibition at 0.03 μM ([3]; at 0.03 μM): 16%

Structure (SMILES): CN1CCC[C@H](COc2ccc(S(=O)(=O)N3CCC(Nc4nc(N)c(C(=O)c5c(F)cccc5F)s4)CC3)cn2)C1 [Example H11, 1-(4-Amino-2-{1-[6-(1-methyl-piperidin-3S-ylmethoxy)-pyridine-3-sulfonyl]-piperidin-4-ylamino}-thiazol-5-yl)-1-(2,6-difluoro-phenyl)-methanone Dihydrochloride]
- Ki [1]: 0.28 nM
- IC50 ([2]; first HCT-116 column (c4)): 42 nM
- IC50 ([2]; second HCT-116 column (c5)): 130 nM
- Ki [3]: 6.9 nM

Structure (SMILES): CN(C)CC#Cc1ccc(S(=O)(=O)N2CCC(Nc3nc(N)c(C(=O)c4c(F)cccc4F)s3)CC2)cn1 [Example I11, 1-(4-Amino-2-{1-[6-(3-dimethylamino-prop-1-ynyl)-pyridine-3-sulfonyl]-piperidin-4-ylamino}-thiazol-5-yl)-1-(2,6-difluoro-phenyl)-methanone]
- Ki [1]: 0.5 nM
- IC50 ([2]; first HCT-116 column (c4)): 16 nM
- IC50 ([2]; second HCT-116 column (c5)): 25 nM
- Ki [3]: < 0.5 nM

Structure (SMILES): Nc1nc(NC2CCN(C(=O)c3c(F)cccc3Cl)CC2)sc1C(=O)c1c(F)cccc1F [Example R109]
- CDK4 % Inhibition at 0.03 μM ([1]; at 0.03 μM): 34%
- HCT-116 % Inhibition at 0.1 μM ([2]; HCT-116 cells, at 0.1 μM): 14%
- HCT-116 5 Inhibition at 0.25 μM ([2]; HCT-116 cells): 47
- CDK2 % Inhibition at 0.03 μM ([3]; at 0.03 μM): 21%

Structure (SMILES): CC1(C)CN(CCCS(=O)(=O)N2CCC(Nc3nc(N)c(C(=O)c4c(F)cccc4F)s3)CC2)CCN1 [Example K14, 1-(4-Amino-2-{1-[3-(3,3-dimethylpiperazin-1-yl)propane-1-sulfonyl]-piperidin-4-ylamino}-thiazol-5-yl)-1-(2,6-difluoro-phenyl)-methanone.]
- Ki [1]: 2.9 nM
- IC50 ([2]; first HCT-116 column (c4)): 3300 nM
- IC50 ([2]; second HCT-116 column (c5)): > 5000 nM
- Ki [3]: 7.9 nM

Structure (SMILES): Nc1nc(NC2CN(C(c3ccccc3)c3ccccc3)C2)sc1C(=O)c1c(F)cccc1F [Example A14, [4-Amino-2-(1-benzhydryl-azetidin-3-ylamino)-thiazol-5-yl]-(2,6-difluoro-phenyl)-methanone]
- Ki [1]: > 2000 nM
- IC50 ([2]; first HCT-116 column (c4)): > 5000 nM
- IC50 ([2]; second HCT-116 column (c5)): > 5000 nM
- Ki [3]: > 2000 nM

Structure (SMILES): Cc1cn(-c2ccc(S(=O)(=O)N3CCC(Nc4nc(N)c(C(=O)c5c(F)cccc5F)s4)CC3)cn2)cn1 [Example G27, 1-(4-Amino-2-{1-[6-(4-methyl-imidazol-1-yl)-pyridine-3-sulfonyl]-piperidin-4-ylamino}-thiazol-5-yl)-1-(2,6-difluoro-phenyl)-methanone Hydrochloride]
- Ki [1]: < 1 nM
- IC50 ([2]; first HCT-116 column (c4)): 57 nM
- IC50 ([2]; second HCT-116 column (c5)): 250 nM
- Ki [3]: 0.41 nM

Source: patent US20050101595A1, “N-containing cycloalkyl-substituted amino-thiazole derivatives and pharmaceutical compositions for inhibiting cell proliferation and methods for their use” (PFIZER INC., priority 2003, published 2005)
